Where two headings read alike, the source gives them in different places.
Assays:
Assay in all cases: biochemical
Set-up in all cases: Eurofins KinaseProfiler full panel at Km ATP, residual kinase activity (%) relative to DMSO
Fms(h) = target: T1, Fms(h) (Homo sapiens, UniProt P07333)
T1 construct: gene CSF1R
Summary of the method: (§1)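 Radiometric kinase activity assays were run with ATP at Km and compounds at 10 µM, and remaining activity (%) was reported. A separate competitive binding screen measured DNA-tagged kinase displaced from immobilized active-site ligands by qPCR, giving percent kinase still bound at 10 µM compound in DMSO.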

TTK(h) = target: T2, TTK(h) (Homo sapiens, UniProt P33981)
T2 sequence (P33981 1-857): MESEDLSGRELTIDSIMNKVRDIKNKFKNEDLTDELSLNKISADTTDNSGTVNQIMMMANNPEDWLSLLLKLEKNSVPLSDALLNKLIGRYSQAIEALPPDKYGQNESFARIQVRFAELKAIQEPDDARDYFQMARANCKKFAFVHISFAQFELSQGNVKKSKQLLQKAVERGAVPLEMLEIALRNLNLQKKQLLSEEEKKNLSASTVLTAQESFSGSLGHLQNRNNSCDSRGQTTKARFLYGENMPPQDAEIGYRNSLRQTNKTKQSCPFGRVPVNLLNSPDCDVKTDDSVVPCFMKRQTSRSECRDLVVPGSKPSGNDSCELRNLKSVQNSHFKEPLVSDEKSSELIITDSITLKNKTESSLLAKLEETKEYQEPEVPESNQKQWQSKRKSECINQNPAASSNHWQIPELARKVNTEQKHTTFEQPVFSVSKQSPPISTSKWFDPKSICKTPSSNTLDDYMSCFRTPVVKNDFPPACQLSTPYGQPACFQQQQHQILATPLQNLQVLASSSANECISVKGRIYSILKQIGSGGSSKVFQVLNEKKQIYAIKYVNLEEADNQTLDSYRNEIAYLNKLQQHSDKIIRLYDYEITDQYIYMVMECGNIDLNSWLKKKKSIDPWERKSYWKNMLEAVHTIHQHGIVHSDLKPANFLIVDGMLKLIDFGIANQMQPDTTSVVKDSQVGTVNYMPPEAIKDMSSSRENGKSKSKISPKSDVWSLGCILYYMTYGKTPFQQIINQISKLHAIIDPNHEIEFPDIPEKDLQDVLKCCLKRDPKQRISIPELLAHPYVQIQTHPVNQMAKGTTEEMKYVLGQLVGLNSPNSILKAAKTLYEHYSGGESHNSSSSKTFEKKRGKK
Summary of the method: as §1

JAK3(h) = target: T3, JAK3(h) (Homo sapiens, UniProt P52333)
T3 sequence (P52333 1-1124): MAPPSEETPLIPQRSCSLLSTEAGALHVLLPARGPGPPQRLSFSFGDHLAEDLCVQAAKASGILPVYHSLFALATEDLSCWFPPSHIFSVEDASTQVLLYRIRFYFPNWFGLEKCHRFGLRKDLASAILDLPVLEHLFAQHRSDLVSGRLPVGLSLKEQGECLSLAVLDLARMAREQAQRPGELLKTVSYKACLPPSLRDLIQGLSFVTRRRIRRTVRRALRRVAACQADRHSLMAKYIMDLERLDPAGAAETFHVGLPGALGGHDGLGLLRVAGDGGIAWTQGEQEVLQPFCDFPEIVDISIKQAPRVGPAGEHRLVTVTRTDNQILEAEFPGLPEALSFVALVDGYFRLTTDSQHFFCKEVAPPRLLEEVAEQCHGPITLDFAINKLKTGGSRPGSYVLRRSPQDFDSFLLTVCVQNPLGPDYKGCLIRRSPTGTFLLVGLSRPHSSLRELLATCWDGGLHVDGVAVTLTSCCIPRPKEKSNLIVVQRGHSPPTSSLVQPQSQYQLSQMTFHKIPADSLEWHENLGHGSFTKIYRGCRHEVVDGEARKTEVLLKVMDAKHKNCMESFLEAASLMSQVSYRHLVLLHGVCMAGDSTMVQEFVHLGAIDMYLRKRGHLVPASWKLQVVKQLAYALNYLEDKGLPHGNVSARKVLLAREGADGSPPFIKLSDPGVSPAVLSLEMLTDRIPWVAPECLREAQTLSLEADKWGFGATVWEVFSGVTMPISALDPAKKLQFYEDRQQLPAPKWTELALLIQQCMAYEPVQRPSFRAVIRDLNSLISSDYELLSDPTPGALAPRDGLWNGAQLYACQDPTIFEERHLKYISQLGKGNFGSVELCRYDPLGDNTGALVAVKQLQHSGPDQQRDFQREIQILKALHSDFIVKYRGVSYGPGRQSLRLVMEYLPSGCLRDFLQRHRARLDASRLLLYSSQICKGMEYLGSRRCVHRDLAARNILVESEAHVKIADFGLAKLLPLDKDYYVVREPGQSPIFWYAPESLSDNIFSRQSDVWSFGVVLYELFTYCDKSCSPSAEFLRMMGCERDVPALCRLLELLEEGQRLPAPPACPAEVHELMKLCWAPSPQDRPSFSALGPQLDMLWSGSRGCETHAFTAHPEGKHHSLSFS
Summary of the method: as §1

[1] = read-out: Residual activity (%) Spautin-1 5aa
[2] = read-out: Residual activity (%) 5as
[3] = read-out: Residual activity (%) 5at
[4] = read-out: Residual activity (%) 5ay

T1 sequence (P07333 whole entry): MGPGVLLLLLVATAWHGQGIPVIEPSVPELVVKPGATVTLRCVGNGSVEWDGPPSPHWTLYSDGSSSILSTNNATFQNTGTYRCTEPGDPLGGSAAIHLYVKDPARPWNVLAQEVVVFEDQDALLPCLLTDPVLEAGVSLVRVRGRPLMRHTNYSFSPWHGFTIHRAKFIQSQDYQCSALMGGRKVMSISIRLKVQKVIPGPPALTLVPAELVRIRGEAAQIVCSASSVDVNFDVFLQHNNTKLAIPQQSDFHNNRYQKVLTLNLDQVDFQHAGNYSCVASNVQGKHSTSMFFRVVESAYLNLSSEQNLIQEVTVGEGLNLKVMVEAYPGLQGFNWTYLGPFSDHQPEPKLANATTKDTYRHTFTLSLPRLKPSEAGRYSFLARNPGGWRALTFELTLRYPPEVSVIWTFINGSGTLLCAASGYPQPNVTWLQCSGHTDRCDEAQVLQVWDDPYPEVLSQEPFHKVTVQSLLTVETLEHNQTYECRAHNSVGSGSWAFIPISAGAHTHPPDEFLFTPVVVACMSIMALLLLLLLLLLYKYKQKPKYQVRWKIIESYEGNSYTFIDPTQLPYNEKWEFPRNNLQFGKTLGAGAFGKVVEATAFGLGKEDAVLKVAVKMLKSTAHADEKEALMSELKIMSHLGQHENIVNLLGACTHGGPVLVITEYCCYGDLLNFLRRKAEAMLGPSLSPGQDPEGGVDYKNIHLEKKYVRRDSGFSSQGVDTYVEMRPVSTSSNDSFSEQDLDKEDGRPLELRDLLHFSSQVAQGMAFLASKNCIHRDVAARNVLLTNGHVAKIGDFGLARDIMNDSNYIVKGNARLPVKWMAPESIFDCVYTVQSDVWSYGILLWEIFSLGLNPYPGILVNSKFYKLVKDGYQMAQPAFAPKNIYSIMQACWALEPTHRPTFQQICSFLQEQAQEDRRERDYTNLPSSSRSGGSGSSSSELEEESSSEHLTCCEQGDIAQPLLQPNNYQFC

Fc1ccc(CNc2ncnc3ccc(F)cc23)cc1 [5aa, 6-Fluoro-N-(4-fluorobenzyl)-4-Quinazolinamine]
remaining activity at 10 µM (Fms(h); [1]): 94%
remaining activity at 10 µM (TTK(h); [1]): 64%
remaining activity at 10 µM (JAK3(h); [1]): 94%

Fc1ccc(CCNc2ncnc3ccc(F)cc23)cc1 [5as, 6-Fluoro-N-[2-(4-Fluorophenyl)Ethyl]-4-Quinazolinamine]
remaining activity at 10 µM (Fms(h); [2]): 72%
remaining activity at 10 µM (TTK(h); [2]): 84%
remaining activity at 10 µM (JAK3(h); [2]): 94%

Fc1ccc2ncnc(NCCc3ccc(Cl)cc3)c2c1 [5at, N-[2-(4-Chlorophenyl)Ethyl]-6-Fluoro-4-Quinazolinamine]
remaining activity at 10 µM (Fms(h); [3]): 64%
remaining activity at 10 µM (TTK(h); [3]): 89%
remaining activity at 10 µM (JAK3(h); [3]): 92%

COc1ccc2ncnc(Nc3cccc(F)c3)c2c1 [5ay, N-(3-Fluorophenyl)-6-Methoxy-4-Quinazolinamine]
remaining activity at 10 µM (Fms(h); [4]): 90%
remaining activity at 10 µM (TTK(h); [4]): 104%
remaining activity at 10 µM (JAK3(h); [4]): 91%

— paper PMC7827406, “Structure–Activity Relationship (SAR) Study of Spautin-1 to Entail the Discovery of Novel NEK4 Inhibitors” (International Journal of Molecular Sciences, 2021)
